Test results: US20240199557A1, “METHODS OF MAKING 1-BENZYL-4-PHENYL-1H-1,2,3-TRIAZOLE (BPT) AND BPT COATED STRUCTURES” (BOARD OF REGENTS, THE UNIVERSITY OF TEXAS SYSTEM, priority 2022, published 2024)

How the values were obtained:
[1] = Anodic cyclic polarization (CYP): pitting potential
Excerpt: (§1) The steel cylinder working electrode (WE) were cross-sectioned and encased in epoxy. The surface was polished using 120 grit to 600 grit SiC paper, resulting in an exposed area of 0.499±0.01 cm^2. A Pt mesh was used as the counter electrode (CE). In terms of the reference electrodes (RE), a Saturated Calomel Electrode (SCE) was used for solutions with chloride and a Mercury Mercurous Sulfate Electrode (MSE) for solutions without chloride, satisfying the electrochemical cell requirements of ASTM standard G5 [38]. Though the experiments without chlorides were measured with MSE, the results were converted to SCE.
(§2) The WE, RE, and CE were placed in a test cell containing a synthetic pore solution (SPS). This SPS mimics the concrete pore environment and followed a formula consisting of 8.33 g/L NaOH+23.3 g/L KOH+2.0 g/L Ca(OH)2 (pH:13.6). These solutions were prepared using deionized water from a Milli-Q Water Purification System (resistivity: 18.2-18.7 MΩ·cm) and analytically pure grade reagents.
The testing procedure involved an initial pH measurement of the solution followed by purging the cell with CO2-free air (300 cc/min or more) for 5 minutes, prior to introducing the WE and throughout the experiment to reduce the effects of carbonation. More details can be found elsewhere. 2 M NaCl was chosen for the experiments since previously tested concentrations were not able to break the passive film generated in this highly alkaline environment. After chloride addition, the electrolyte was stirred for 4 h, while continuing to purge with CO2-free air. Then stirring stopped and purging was continued for 20 h to allow for passivation of the substrate. […] This procedure is similar to ASTM G180 [41]. The difference is related to the use of SPS instead of a cement slurry. Using a Gamry Reference 600+Potentiostat, different electrochemical tests were performed including open circuit potential (OCP), linear polarization resistance (LPR) and Anodic Cyclic Polarization (CYP).
LPR tests were performed from −0.030 V to +0.030 V from OCP, with a scan rate of 0.167 mV/s, in accordance with ASTM G59. CYP ran at a scan rate of 0.167 mV/s, beginning at 0.030 V more negative than the OCP with a maximum i of 1 mA/cm^2. Tests were performed to verify that pitting was occurring and not crevice corrosion occurred during CYP. After each experiment, the specimen was rinsed with D.I. water, degreased with ethanol, and dried. Surface images were taken using BX53 Olympus microscope to evaluate the corrosion morphology. […]
It is observed that for all conditions evaluated the passive film on the steel was formed, but the pitting potential (Ep) changed, being higher with the increase in BPT concentration (Table 3).

[2] = Stability/solubility of BPT in SPS and co-dissolvers; assay type: physicochemical
Description: Initial tests were run to find the stability/solubility of BPT in SPS. […] Several co-dissolvers were tested (ethyl alcohol 95%, isopropyl alcohol, acetone, dimethylsulfoxide, dimethylformamide, ethylenglycol, diethylenglycol, and 1-Methyl-2-pyrrolidinone), to aid in the solubility of the BPT in SPS. From these co-dissolvers, the organic compound N-methyl-2-pyrrolidone (NMP) performed the best and was selected at a concentration of 2.35 mg of BPT/mL of NMP (BPT saturated NMP solution).

[3] = XRD quantitative phase analysis of carbon steel discs after immersion
Description: Four 3 mm height discs were cut from […] diameter steel rebar and one of their flat faces was polished using silicon carbide sandpaper with 250, 400 and, 600 grit. Subsequently each disc was immersed for 90 seconds in 10 mL of a freshly prepared Clarke solution [42], rinsed thoroughly with water, acetone and dried under a soft stream of dry N2. The crystalline structure of the samples was analyzed on their sheeny face employing X-Ray powder diffraction (XRD) using a Bruker D8 Advance Eco diffractometer applying Cu-Kα1,2 radiation. All samples were scanned at 40 kV and 25 mA in the […] of 31-66° and 2.0 s of step time per 2θ=0.019°. The crystalline planes used to perform the quantitative phase analysis (QPA) are for iron at 2θ=44.6°; [2,0,0] for lepidocrocite at 2θ=47.4° and, [2,2,0] for goethite at 2θ=33.6°.
Subsequently, each one of the discs was immersed in a solution with the composition as described on Table 5 and their surfaces were analyzed using XRD four weeks later. The diffraction patterns are shown in FIG. 9 and the quantitative phase analysis (QPA) data is given on Table 6.

[4] = A36 mild steel, 1M HCl, 298 K; 2.311 mm/year without inhibitor; cited from earlier work
[5] = Linear polarization resistance (LPR): corrosion rate and inhibitor efficiency of steel rebar in synthetic pore solution
Excerpt: as §1, §2
The testing procedure involved an initial pH measurement of the solution followed by purging the cell with CO2-free air (300 cc/min or more) for 5 minutes, prior to introducing the WE and throughout the experiment to reduce the effects of carbonation. More details can be found elsewhere. 2 M NaCl was chosen for the experiments since previously tested concentrations were not able to break the passive film generated in this highly alkaline environment. After chloride addition, the electrolyte was stirred for 4 h, while continuing to purge with CO2-free air. Then stirring stopped and purging was continued for 20 h to allow for passivation of the substrate. […]
The results of the LPR measurements for the different conditions tested are presented in FIG. 3 as CR, which was determined using an estimated Stem-Geary coefficient (B) of 26 mV (corroding bars) and Rp values calculated, all following ASTM G59 [72, 73]. […]
The efficiency (IE, %) of the BPT was calculated using the CR results when Cl^− was added to the control solution (CRSPS) and solutions containing BPT (CRBPT), using Equation (1). […]

## c1ccc(Cn2cc(-c3ccccc3)nn2)cc1 [BPT, 1-Benzyl-4-Phenyl-1H-1,2,3-triazole]
[1]; 1 mM BPT in SPS, 2M NaCl
  Ep (pitting potential): 149.25 mV vs. SCE
[1]; 2 mM BPT in SPS, 2M NaCl
  Ep (pitting potential): 404.04 mV vs. SCE
[1]; 3 mM BPT in SPS, 2M NaCl
  Ep (pitting potential): 302.06 mV vs. SCE
[1]; Adj. 3 mM BPT+NMP (hydroxide concentration adjusted to SPS), 2 M NaCl
  Ep (pitting potential): 429.53±1.29 mV vs. SCE
[2]; alkaline solution (SPS, pH 13.6)
  stability in SPS: stable in the alkaline solution
[2]; in N-methyl-2-pyrrolidone (NMP)
  concentration of BPT saturated NMP solution: 2.35 mg of BPT/mL of NMP
[2]; water
  solubility in water: unable to dissolve in water
[3]; SPS with NaCl in presence of BPT
  AFe/AGoe: 0
[3]; disc 4: SPS + 2M NaCl + NMP + 3 mM BPT, four-week immersion
  AFe/ALep: 26,908
[4]
  corrosion kinetics (corrosion rate) with BPT: 0.429 mm/year
[5]; 3 mM BPT in SPS with 2 M NaCl, calculated from CR by Equation (1)
  efficiency (IE, %): 85.2%
[5]; SPS with 2 M NaCl
  concentrations at which BPT can inhibit the corrosion of carbon steel rebar: higher than 2 mM
  optimal concentration of BPT to inhibit corrosion on carbon steel rebar: 3 mM
